The values that follow come from EP0165775A1, “Antifungal azole compounds” (IMPERIAL CHEMICAL INDUSTRIES PLC, priority 1984, dated 1985).

The experiment deals with Candida albicans and Trichophyton mentagrophytes var. quinkeanum. Description: animal or person. Type of experiment: in vivo. The following applies: 168 h; female mice, oral dosing twice on day 0 and once daily on days 1-4; skin lesions scored and vaginal samples cultured on day 7; read-out: minimum effective dose (MED). The procedure: The following Monday (day 0) they are clipped on the back and then dosed orally with test compounds. They are then inoculated with Candida albicans in the vagina and Trichophyton mentagrophytes var. quinkeanum on the back, and then given a second dose of the same compound. Dosing is repeated once daily on days 1-4. On day 7 skin lesions are scored visually and vaginal samples taken for culture on agar. Groups of 5 mice are used and compounds are dosed initially at a level of 250mg./kg. The dose is then reduced sequentially until a minimum effective dose (MED) is found.

With `OC(Cn1cncn1)(Cn1cnc(Br)n1)c1ccc(F)cc1F` (stereo not drawn) [Example 1, 1-(3-bromo-1,2,4-triazol-1-yl)-2-(2,4-difluorophenyl)-3-(1,2,4-triazol-l-yl)propan-2-ol], the minimal effective dose is 2.5 mg/kg.
